# Laboratory results as given in patent US20130296430A1, “COMPOSITIONS AND METHODS FOR TREATING AUTISM AND AUTISM SPECTRUM DISORDER” (priority 2012, published 2013).
# Experiments:
# [1] = cited from earlier work
# children with autism [2] = test: 12-week placebo-controlled study of NAC: Clinical Global Impression (CGI); format: in vivo, human
# Text: The Clinical Global Impression (CGI) rating scales are commonly used measures of symptom severity, treatment response and the efficacy of treatments in treatment studies of patients with mental disorders (Guy, W., 1976, ECDEU Assessment Manual for Psychopharmacology, Rockville, Md., U.S. Department of Health, Education, and Welfare). The Clinical Global Impression-Severity scale (CGI-S) is a 7-point scale that requires the clinician to rate the severity of the patient's illness at the time of assessment, relative to the clinician's past experience with patients who have the same diagnosis. Considering total clinical experience, a patient is assessed on severity of mental illness at the time of rating 1=normal, not at all ill; 2=borderline mentally ill; 3=mildly ill; 4=moderately ill; 5=markedly ill; 6=severely ill; or 7=extremely ill.
# (§1) A 12-week, double-blind randomized, placebo-controlled study of NAC in children with autism was conducted in the Autism & Developmental Disabilities Clinic in the Division of Child & Adolescent Psychiatry at Stanford University Medical Center. The recruitment period started in March 2009 and ended in September 2010. Subjects with and without mental retardation were included. After obtaining informed consent, subjects were screened and inclusion and exclusion criteria were assessed. No changes in eligibility criteria were applied throughout the study. This investigation was approved by the institutional review board at Stanford University School of Medicine. An investigational new drug application (IND#100905) was filed with the Food and Drug Administration, and the study was registered in National Institutes of Health at ClinicalTrials.gov (identifier number NCT00627705).
# (§2) After the screening phase, baseline measures were obtained from subjects continuing to meet inclusion and exclusion criteria. Subjects were then randomized to either placebo or active based on age and gender. As NAC is a nutritional supplement, the quality control is predictably variable and therefore purity is not as stringent as prescription medications. Therefore, in the present study, the stability of the compound was ascertained and the integrity of the active agent was protected by packaging each NAC doses in individual pockets. The active compound and matching placebo were provided by BioAdvantex Pharma, Inc. (Mississauga, Ontario, Canada). […] Subjects randomized to the active drug were initiated at the dose of 900 mg every day for the first 4 weeks, then 900 mg twice daily for 4 weeks and 900 mg three times daily for 4 weeks. (This dose selection was based on previously published studies for other psychiatric conditions (Grant, J. et al., Arch Gen Psychiatry, 66:468-475 (2009); Berk, M. et al., Biol Psychiatry, 64:361-368 (2008); Berk, M. et al., Bio Psychiatry, 64:468-475 (2008)) and the previous experience of our group in studies of children with cystic fibrosis). Alternatively, subjects were initiated at the dose of 900 mg per day, 1,800 mg per day, or 2,700 mg per day of NAC. Alternatively, the subjects were initiated at the dose ranging from 900 mg per day to 2,700 mg per day of NAC.
# If a subject could not tolerate a specific dose, s/he would be maintained at the highest tolerated dose. Subjects were evaluated at baseline, week 4, week 8 and week 12. The Aberrant Behavioral Checklist (ABC) (Aman, M. et al., Am J Ment Defic. 89:492-502 (1985)), the Clinical Global Impressions (CGI) (Guy, W., ECDEU Assessment Manual for Psychopharmacology, Rockville, Md., U.S. Department of Health, Education, and Welfare (1976)), and the Dosage Record and Treatment Emergent Symptom Scale (DOTES) (Guy, W., 1976, ECDEU Assessment Manual for Psychopharmacology, Rockville, Md., U.S. Department of Health, Education, and Welfare) were obtained in each visit. […]
# children with autism [3] = test: 12-week placebo-controlled study of NAC: Social Responsiveness Scale (SRS); format: in vivo, human
# Text: The Social Responsiveness Scale (SRS) (Constantino, J. et al., J Dev Behav Pediatr, 21:2-11 (2000); Constantino, J. et al., J Autism Dev Disord., 3:427-433 (2003)) is a norm-referenced, 65-item parent report questionnaire developed to measure social behaviors, including social awareness, social information processing, reciprocal social communication, and social anxiety, in both clinical and non-clinical populations. It is designed for use with children ages 4 through 18, and more recently, a special version of the SRS has been developed for preschoolers (Pine, E. et al., Autism, 10:344-352 (2006)). The SRS items measure the Autistic Spectrum Disorder (ASD) symptoms in the domains of social awareness, social information processing, reciprocal social communication, social anxiety/avoidance, and stereotypic behavior/restricted interests. Each item is scored from 1 (not true) to 4 (almost always true). Scores are obtained for five treatment subscales: Social Awareness (e.g., “Is aware of what others are thinking or feeling”), Social Cognition (e.g., “Doesn't recognize when others are trying to take advantage of him or her”), Social Communication (e.g., “Avoids eye contact or has unusual eye contact”), Social Motivation (e.g., “Would rather be alone than with others”), and Autistic Mannerisms (e.g., “Has an unusually narrow range of interests”). The SRS summary score was continuously distributed within each group and minimally correlated with Intelligent Quotient (IQ). High scores indicate more severe behavioral symptoms.
# as §1, §2
# If a subject could not tolerate a specific dose, s/he would be maintained at the highest tolerated dose. […]
# children with autism [4] = test: 12-week placebo-controlled study of NAC: Repetitive Behavior Scale-Revised (RBS-R); format: in vivo, human
# Text: The Repetitive Behavior Scale-Revised (RBS-R) (Bodfish et al., The Repetitive Behavior Scale: A test manual (1998)) is an empirically derived clinical rating scale for measuring the presence and severity of a variety of forms of restricted, repetitive behavior that are characteristic of individuals with autism. The RBS-R consists of 6 subscales: stereotyped behavior, self-injurious behavior, compulsive behavior, routine behavior, sameness behavior, and restricted behavior. The scale provides an overall raw score for severity of repetitive behaviors and separate measures of severity for each subtype of repetitive behavior. High scores indicate more severe behavioral symptoms.
# as §1
# After the screening phase, baseline measures were obtained from subjects continuing to meet inclusion and exclusion criteria. Subjects were then randomized to either placebo or active based on age and gender. As NAC is a nutritional supplement, the quality control is predictably variable and therefore purity is not as stringent as prescription medications. Therefore, in the present study, the stability of the compound was ascertained and the integrity of the active agent was protected by packaging each NAC doses in individual pockets. The active compound and matching placebo were provided by BioAdvantex Pharma, Inc. (Mississauga, Ontario, Canada). […] Subjects randomized to the active drug were initiated at the dose of 900 mg every day for the first 4 weeks, then 900 mg twice daily for 4 weeks and 900 mg three times daily for 4 weeks. […]
# If a subject could not tolerate a specific dose, s/he would be maintained at the highest tolerated dose. Subjects were evaluated at baseline, week 4, week 8 and week 12. […]
# [5] = Noszal et al. 2000; cited from earlier work
# [6] = Baseline (before treatment), NAC group n = 15
# [7] = standardized mean difference NAC vs placebo at Week 12
smiles,measurement,setting,value
"CC(=O)N[C@@H](CS)C(=O)O [NAC, N-acetylcysteine]",solubility relative to cystine,"[1]; compared with the stable cysteine disulfide, cystine",much more soluble
same,stability relative to cysteine,[1]; more stable than cysteine,about 10 times
same,"CGI severity, Mean (SD)",children with autism [2]; [6],5.1 (0.7)
same,"CGI improvement, Mean (SD)","children with autism [2]; Week 12, NAC n = 14",2.9 (1.1)
same,"CGI severity, Mean (SD)","children with autism [2]; Week 12, NAC n = 14, 7-point scale",4.5 (0.8)
same,"CGI-S global severity, pattern NAC vs placebo","children with autism [2]; all randomized participants, p=0.170",no significant differences
same,"CGI-I improvement, pattern NAC vs placebo","children with autism [2]; all randomized participants, p=0.449",no significant differences
same,"CGI improvement, Cohen's d",children with autism [2]; [7],.30
same,"CGI severity, Cohen's d",children with autism [2]; [7],.47
same,"SRS total, Mean (SD)",children with autism [3]; [6],111.9 (28.3)
same,"SRS total, Mean (SD)","children with autism [3]; Week 12, NAC n = 14",93.8 (26.7)
same,"SRS-Total raw scores, treatment effect","children with autism [3]; all randomized participants, NAC vs placebo, p=0.141",did not significantly influence
same,"SRS-Social Cognition sub-scale, treatment effect","children with autism [3]; all randomized participants, p=0.037, said to appear due to regression to the mean",significant improvements
same,"SRS-Autism Mannerisms sub-scale, treatment effect","children with autism [3]; all randomized participants, p=0.045",significant improvements
same,"any other SRS subscale, treatment effect","children with autism [3]; all randomized participants, p>0.100",no significant treatment effects
same,"SRS-Total scores, treatment effect","children with autism [3]; participants who completed the study (NAC N=13, placebo N=12), p=0.039",significantly improved
same,"SRS total, Cohen's d",children with autism [3]; [7],.14
same,"RBS total, Mean (SD)",children with autism [4]; [6],33.1 (16.2)
same,"RBS total, Mean (SD)","children with autism [4]; Week 12, NAC n = 14",22.3 (12.0)
same,"RBS-Total, treatment effect","children with autism [4]; all randomized participants, NAC vs placebo, p=0.015",significant improvement
same,"RBS total, Cohen's d",children with autism [4]; [7],.57
same,half-cell potential of the NAC thiol/disulfide pair,[5],about +63 mV
